Data: patent publication US20210015889A1, “METHODS OF DISRUPTING A BIOFILM AND/OR PREVENTING FORMATION OF SAME” (Yeda Research and Development Co. Ltd., priority 2018, published 2021)

Legend:
Type in all cases: cell-based
B. subtilis colonies [1] = assay: B. subtilis colony biofilm on B4 agar with Ca acetate
B. subtilis [2] = assay: Planktonic growth (OD600) of B. subtilis in B4 medium; conditions: B4 medium with Ca, AHA concentrations giving smooth colonies (FIG. 3C upper)
Experimental: (§1) B. subtilis and M. smegmatis colonies grown on 1.5% B4 agar, supplemented with Ca acetate. FIG. 3A is a schematic representation of the biomineralization reactions leading to bicarbonate production. […] Scale bars represent 2 mm. […] DMSO served as a positive control and a medium not supplemented with Ca served as a negative control. Scale bars represent 2 mm. […] Colonies were grown in a medium supplemented with 0.025% Ca and treated with 10 mg/ml AHA. DMSO served as a positive control and a medium not supplemented with Ca served as a negative control. Scale bars represent 2 mm in the upper panels; and 0.5 mm in the lower panels.
(§2) Growth Analysis—To determine growth kinetics of planktonic bacteria,the cultures were grown for 15-30 hours at 30° C. in a plate reader (BioTek, Winooski, Vt., USA) and the optical density at 600 nm (OD600) was measured every 20 minutes. Results are presented as averages for 5-6 wells from a single representative experiment out of three.

M. smegmatis colonies = assay: M. smegmatis colony biofilm on B4 agar with Ca acetate
[3] = tested on: M. smegmatis planktonic cells; assay: Planktonic growth (OD600) of M. smegmatis in B4 medium; conditions: B4 medium with Ca (FIG. 3C lower)
Experimental: as §1, §2

B. subtilis [4] = assay: Pellicle biofilm model, B. subtilis in liquid B4
Experimental: (§3) B. subtilis (FIG. 4A) and M. smegmatis (FIG. 4B) cells were grown in liquid B4 supplemented with 0.25% and 0.025% calcium acetate, respectively, and treated with AHA at the indicated concentrations. DMSO served as a positive control and a medium not supplemented with Ca served as a negative control. The images of the top view of the wells were taken following robust pellicles formed in the DMSO control—at 3 days for B. subtilis and at 4 days for M. smegmatis.
B. subtilis cells were grown in liquid B4 supplemented with 0.25% calcium acetate and treated with AHA at the indicated concentrations. DMSO served as a positive control and a medium not supplemented with Ca served as a negative control. The images of the top view of the wells were taken following 6 days; and the weight of the mineral was determined following removal of all organic material by bleaching.
Analysis of the weight of the minerals—(A) Thermogravimetric analysis (TGA) of the B. subtilis colonies was performed as described previously [Levi-Kalisman et al., J Chem Soc Dalton (2000), 3977-3982] for at-least three colonies materials combined for each time point. The weight loss associated with the calcite relates to the temperature range 650-800° C. Results are presented as an average of at-least three independent experiments. […]

M. smegmatis = assay: Pellicle biofilm model, M. smegmatis in liquid B4; conditions: liquid B4, 0.025% calcium acetate, 4 days (FIG. 4B)
Experimental: as §3

B. subtilis colonies [5] = assay: FITC diffusion in colony cross-sections; conditions: day 3 B. subtilis colonies, 0.025% Ca, 10 mg/ml AHA, 4 hours after FITC (FIG. 3E)
Experimental: as §1
Imaging—All images were taken using a Nikon D3 camera or a Stereo Discovery V20″ microscope (Tochigi, Japan) with objectives Plan Apo S ×0.5 FWD 134 mm or Apo S ×1.0 FWD 60 mm (Zeiss, Goettingen, Germany) attached to a high-resolution microscopy Axiocam camera. Data were created and processed using Axiovision suite software (Zeiss). To visualize colony cross-sections, a warm low-melt agar was poured over the colony following incubation with FITC, and allowed to solidify at room temperature (RT). Following, slices were made with a razor blade and immediately visualized. All experiments were repeated at least 3 times, in technical triplicates, with similar results.

P. aeruginosa [6] = assay: P. aeruginosa biofilm formation, Crystal Violet Staining; conditions: for biofilm development: P. aeruginosa submerged biofilm, single inhibitor (FIG. 6); for biofilm formation / combination effect on biofilm formation: P. aeruginosa; for biofilm formation: single inhibitor (FIGS. 13-14)
Experimental: (§4) Crystal Violet—From each individual culture, 20 μl samples from exponential phase and 180 μl of TSB broth were dispensed in the wells of sterile 96-wells flat-bottomed microtiter plate (Nunc) and incubated at 37° C. for 24 hours. The control well contained only TSB broth without inoculation. Following incubation, unbound cells were removed by inversion of the microtiter plate, followed by vigorous tapping on an absorbent paper. Subsequently, adhered cells were fixed for 30 minutes at […]. Adhered cells were stained by addition of 220 μl of crystal violet (0.5%) for 5 minutes. The stain was removed by exhaustive washing with distilled water. The plates were then allowed to dry. In order to quantify adhered cells, 220 μl of decoloring solution (95% ethanol) was added to each well for 15 minutes. The absorption of the eluted stain was measured at 590 nm.

[7] = tested on: P. aeruginosa pre-existing biofilm; assay: P. aeruginosa pre-existing biofilm, Crystal Violet Staining; conditions: biofilms grown 12 hours in TSB, treated 6 hours in PBS (FIG. 8)
Experimental: P. aeruginosa biofilms were grown in multi-well 24 wells plates in TSB for 12 hours. Following, biofilms were treated either in PBS or PBS applied with the indicated concentrations of sodium vanadate, DTNB or AHA for 6 hours. Results are shown as intensity of crystal violet staining (OD595) compared with the initial absorbance prior to treatment.
as §4

P. aeruginosa [8] = assay: Planktonic growth of P. aeruginosa; conditions: inhibitor concentrations used, data not shown
Experimental: as §2

P. aeruginosa [9] = assay: Survival of P. aeruginosa biofilm after exposure to ciprofloxacin or gentamicin (CFU); conditions: alone or in combination (FIGS. 7 and 9)
Experimental: P. aeruginosa biofilms were grown in multi-well 24 wells plates in TSB for 12 hours. Following, biofilms were treated either in PBS or PBS applied with the indicated concentrations of DTNB, AHA, CIP and/or GM for 6 hours. Following treatment, the biofilms were mildly sonicated and serially diluted to assess the number of CFU within each group.

P. aeruginosa [10] = assay: Ex vivo lung infection system (mouse lung explants infected with P. aeruginosa); conditions: 37° C.; for lung colonization by P. aeruginosa / lung tissue death: mouse lung explants, ~2 days (FIGS. 10D and 11); for tissue damage (Hematoxylin/eosin histology): mouse lung tissue with P. aeruginosa, 2 days
From the text: FIG. 10A is a scanning Electron Microscopy (SEM) image of biofilms of partially bleached sputum sample from P. aeruginosa positive CF patient A4, containing bleach-resistant mineralized tissue. FIG. 10B is a SEM image of biofilms of partially bleached sputum sample from P. aeruginosa positive CF patient A62 (left), accompanied by an image taken with the backscattering mode (right), containing bleach-resistant mineralized tissue. […] P. aeruginosa strain PA14 expressing GFP (green) was used to infect a lung tissue (nucleoli of lung cells were stained with DAPI—blue). Lung tissue was harvested from one month old mice and incubated in DMEM 5% FCS at 37° C. for 2 days, in the presence of P. aeruginosa, sectioned and visualized. […] Lungs were harvested from one month old mice and tissue was incubated in DMEM 5% FCS, either with or without AHA, as indicated. To each sample, either P. aeruginosa or DMEM (control) was added. Samples were incubated at 37° C. for 2 days, sectioned, stained with Hematoxylin/eosin stain and visualized.
Lungs were harvested from one month old mice and tissue was incubated in DMEM 5% FCS, either with or without DTNB, as indicated. To each sample, either P. aeruginosa or DMEM (control) was added. Samples were incubated at 37° C. for 2 days, sectioned, stained with Hematoxylin/eosin stain and visualized.
Ex vivo lung infection system—Lungs were harvested from 2 mice (one month old) and placed in petri dishes containing DMEM 5% FCS. The tissue was divided into circular pieces 4 mm in diameter with a biopsy punch and transferred to a 24 wells plate (4-5 explants/well) with 450 μl DMEM containing 100 μg/ml carbenicillin (Sigma-Aldrich) and 0, 2.5, or 5 mg/ml AHA or DTNB. To each respective well, either 50 μl DMEM (control) or P. aeruginosa pretreated with 0, 2.5, or 5 mg/ml AHA or with 0, 1, 5 or 10 mM DTNB and diluted within DMEM to attain OD600 0.373 or 0.257, respectively, were added, with three technical repeats for each condition. The plates were incubated at 37° C. for ˜2 days (48-52 hours) and washed twice with PBS, fixed with PFA 4% for 10 minutes, and embedded in either cryosection (OCT) compound or paraffin. Paraffin samples were cut into 7 micron slices and stained with H&E; whereas cryosections were cut into 10 micron slices and placed on superfrost plus slides.

| Compound | growth, biofilm development and biomineralization of colonies (B. subtilis colonies [1]; B. subtilis colonies on 1.5% B4 agar with Ca acetate (FIGS. 3A-E)) | colony morphology (B. subtilis colonies [1]; B. subtilis, medium with 0.25% Ca, AHA at indicated doses (FIG. 3B)) | effect on planktonic growth (B. subtilis [2]) | colony morphology (M. smegmatis colonies; 0.025% Ca, AHA concentrations tolerated by planktonic cells (FIG. 3D)) | growth, biofilm development and biomineralization (M. smegmatis colonies; inhibition of urease activity) | tolerance by planktonic cells [3] | non-soluble mineral production (B. subtilis [4]; B. subtilis pellicle, 0.25% calcium acetate, 6 days, mineral weight after bleaching (FIG. 5)) | growth, biofilm development and biomineralization in pellicle biofilm model (B. subtilis [4]; B. subtilis, liquid B4, 0.25% calcium acetate, 3 days (FIG. 4A)) | growth, biofilm development and biomineralization in pellicle biofilm model (M. smegmatis) | formation of diffusion barriers within the colony (B. subtilis colonies [5]) | biofilm development (P. aeruginosa [6]) | biofilm formation (P. aeruginosa [6]) | dispersal of pre-existing biofilm [7] | effect on planktonic growth (P. aeruginosa [8]) | sensitization to ciprofloxacin and gentamicin (P. aeruginosa [9]) | lung colonization by P. aeruginosa (P. aeruginosa [10]) | lung tissue death (P. aeruginosa [10]) | tissue damage (Hematoxylin/eosin histology) (P. aeruginosa [10]) | combination effect on biofilm formation (P. aeruginosa [6]; in combination with AHA (FIG. 13)) | combination effect on biofilm formation (P. aeruginosa [6]; in combination with DTNB (FIG. 14)) |
| --- | --- | --- | --- | --- | --- | --- | --- | --- | --- | --- | --- | --- | --- | --- | --- | --- | --- | --- | --- | --- |
| CC(=O)NO [AHA, acetohydroxamic acid] | inhibits growth, biofilm development and biomineralization | smooth colony morphology | little or no effect on planktonic growth | less wrinkled colonies | inhibited growth, biofilm development and biomineralization | well-tolerated | decreased non-soluble mineral production | inhibits growth, biofilm development and biomineralization | inhibits growth, biofilm development and biomineralization | prevented the formation of the diffusion barriers within the colony | impaired biofilm development | inhibited biofilm formation | able to disperse a pre-existing P. aeruginosa biofilm | little or no effect on planktonic growth | sensitized the P. aeruginosa colonies to treatment with ciprofloxacin and gentamicin | diminished lung colonization by P. aeruginosa | prevented lung tissue death | prevents tissue damage | – | – |
| O=C(O)c1cc(SSc2ccc([N+](=O)[O-])c(C(=O)O)c2)ccc1[N+](=O)[O-] [DTNB, 5,5′-Dithiobis (2-nitrobenzoic acid, DTNB)] | – | – | – | – | – | – | – | – | – | – | impaired biofilm development | inhibited biofilm formation | able to disperse a pre-existing P. aeruginosa biofilm | little or no effect on planktonic growth | sensitized the P. aeruginosa colonies to treatment with ciprofloxacin and gentamicin | diminished lung colonization by P. aeruginosa | prevented lung tissue death | prevents tissue damage | – | – |
| sodium vanadate | – | – | – | – | – | – | – | – | – | – | – | inhibited biofilm formation | – | – | – | – | – | – | synergistic | synergistic |
